{
  "source": "patent US10231453B2",
  "about": "“5-substituted imidazole derivatives” (BAYER CROPSCIENCE AKTIENGESELLSCHAFT, priority 2015, dated 2019)",
  "key": {"[1]": {"test": "Measurement of LogP values by HPLC on reversed phase columns (EEC directive 79/831 Annex V.A8)", "format": "physicochemical", "conditions": "for chromatographic logP: method [a]: LC-UV, acidic range, 0.1% formic acid in water and acetonitrile as eluent, Table 1", "method": "Measurement of Log P values was performed as outlined above."}, "Puccinia recondita": {"system": "Puccinia recondita", "test": "In vivo preventive test on Puccinia recondita (brown rust on wheat), Examples C and R3", "conditions": "preventive spray, evaluated 11 days after inoculation; for Efficacy in %: Example R3, wheat; for pest or weed control at 500 ppm: Puccinia recondita, 264 h, 500 ppm of active ingredient, wheat, read-out: efficacy"}, "Uromyces appendiculatus": {"system": "Uromyces appendiculatus", "test": "In vivo preventive test on Uromyces appendiculatus (bean rust), Examples G and R7", "conditions": "264 h, 500 ppm of active ingredient, bean, preventive spray, evaluated 11 days after inoculation, read-out: efficacy"}, "Septoria tritici": {"system": "Septoria tritici", "test": "In vivo preventive test on Septoria tritici (leaf spot on wheat), Examples E, Q3 and R5", "conditions": "Zymoseptoria tritici, 576 h, 500 ppm of active ingredient; wheat, preventive spray, evaluated 24 days after inoculation; read-out: efficacy"}, "Sphaerotheca fuliginea": {"system": "Sphaerotheca fuliginea", "test": "In vivo preventive test on Sphaerotheca fuliginea (powdery mildew on cucurbits), Examples F and R6", "conditions": "Podosphaera fuliginea, 360 h; 500 ppm of active ingredient; gherkin, preventive spray, evaluated 15 days after inoculation; read-out: efficacy"}},
  "note": "Marks after values point to notes of the source that are not given here.",
  "data": [
    {"smiles": "N#Cc1cncn1CC(O)(Cc1ccncc1Br)C1(Cl)CC1", "note": "(racemic) [Example I-46]", "values": [
      {"measurement": "LogP", "setting": "[1]", "result": "1.94^[a]"}
    ]},
    {"smiles": "N#Cc1cncn1CC(O)(Cc1ccc(Oc2ccc(Cl)cc2)cc1Cl)C1(Cl)CC1", "note": "(racemic) [Example I-53]", "values": [
      {"measurement": "LogP", "setting": "[1]", "result": "4.54^[a]"}
    ]},
    {"smiles": "O=C(Cc1ccccc1F)c1cncn1CC(O)(Cc1ccccc1F)C1(Cl)CC1", "note": "(racemic) [Example I-134]", "values": [
      {"measurement": "LogP", "setting": "[1]", "result": "3.60^[a]"}
    ]},
    {"smiles": "OC(Cc1ccc(Cl)cc1F)(Cn1cnc(Br)c1)C1(Cl)CC1", "note": "(racemic) [drawing 98]", "values": [
      {"measurement": "Efficacy in %", "setting": "Puccinia recondita; 100 ppm", "result": 0, "unit": "%"},
      {"measurement": "Efficacy in %", "setting": "Puccinia recondita; 500 ppm", "result": 94, "unit": "%"}
    ]},
    {"smiles": "N#Cc1cn(CC(O)(Cc2ccc(Cl)cc2F)C2(Cl)CC2)cn1", "note": "(racemic) [drawing 100]", "values": [
      {"measurement": "Efficacy in %", "setting": "Puccinia recondita; 100 ppm", "result": 81, "unit": "%"},
      {"measurement": "Efficacy in %", "setting": "Puccinia recondita; 500 ppm", "result": 94, "unit": "%"}
    ]},
    {"smiles": "OC(Cc1ccc(Cl)cc1F)(Cn1cnc(Cl)c1)C1(Cl)CC1", "note": "(racemic) [drawing 102]", "values": [
      {"measurement": "Efficacy in %", "setting": "Puccinia recondita; 100 ppm", "result": 0, "unit": "%"},
      {"measurement": "Efficacy in %", "setting": "Puccinia recondita; 500 ppm", "result": 67, "unit": "%"}
    ]},
    {"smiles": "OC(Cc1ccc(Cl)cc1F)(Cn1cncc1Cl)C1(Cl)CC1", "note": "(single isomer, unassigned) [Example I-113]", "values": [
      {"measurement": "LogP", "setting": "[1]", "result": "2.54^[a]"}
    ]},
    {"smiles": "N#Cc1cncn1CC(O)(Cc1ccccc1F)C1(Cl)CC1", "note": "(single isomer, unassigned) [Example I-132]", "values": [
      {"measurement": "LogP", "setting": "[1]", "result": "2.59^[a]"}
    ]},
    {"smiles": "N#Cc1cncn1CC(O)(Cc1ccccc1F)C1(Cl)CC1", "note": "(single isomer, unassigned) [Example I-133]", "values": [
      {"measurement": "LogP", "setting": "[1]", "result": "2.59^[a]"}
    ]},
    {"smiles": "OC(Cc1ccccc1Cl)(Cn1cncc1-c1ccccc1)C1(Cl)CC1", "note": "(stereo not shown) [Example I-09]", "values": [
      {"measurement": "pest or weed control at 500 ppm", "setting": "Uromyces appendiculatus", "result": "90 to 100", "unit": "%"},
      {"measurement": "pest or weed control at 500 ppm", "setting": "Septoria tritici", "result": "70 to 79", "unit": "%"},
      {"measurement": "pest or weed control at 500 ppm", "setting": "Sphaerotheca fuliginea", "result": "90 to 100", "unit": "%"}
    ]},
    {"smiles": "N#Cc1cncn1CC(O)(C(F)c1ccccc1F)C1(Cl)CC1", "note": "(stereo not shown) [Example I-31]", "values": [
      {"measurement": "pest or weed control at 500 ppm", "setting": "Uromyces appendiculatus", "result": "90 to 100", "unit": "%"},
      {"measurement": "pest or weed control at 500 ppm", "setting": "Septoria tritici", "result": "90 to 100", "unit": "%"},
      {"measurement": "pest or weed control at 500 ppm", "setting": "Sphaerotheca fuliginea", "result": "90 to 100", "unit": "%"},
      {"measurement": "pest or weed control at 500 ppm", "setting": "Puccinia recondita", "result": "90 to 100", "unit": "%"}
    ]},
    {"smiles": "N#Cc1cncn1CC(O)(Cc1ccc(Cl)cc1Cl)C1(Cl)CC1", "note": "(stereo not shown) [Example I-52]", "values": [
      {"measurement": "pest or weed control at 500 ppm", "setting": "Uromyces appendiculatus", "result": "90 to 100", "unit": "%"},
      {"measurement": "pest or weed control at 500 ppm", "setting": "Septoria tritici", "result": "90 to 100", "unit": "%"},
      {"measurement": "pest or weed control at 500 ppm", "setting": "Sphaerotheca fuliginea", "result": "90 to 100", "unit": "%"},
      {"measurement": "pest or weed control at 500 ppm", "setting": "Puccinia recondita", "result": "80 to 89", "unit": "%"}
    ]},
    {"smiles": "N#Cc1cncn1CC(O)(Cc1cc(Cl)nc(Cl)c1)C1(Cl)CC1", "note": "(stereo not shown) [Example I-61]", "values": [
      {"measurement": "pest or weed control at 500 ppm", "setting": "Uromyces appendiculatus", "result": "90 to 100", "unit": "%"},
      {"measurement": "pest or weed control at 500 ppm", "setting": "Septoria tritici", "result": "90 to 100", "unit": "%"},
      {"measurement": "pest or weed control at 500 ppm", "setting": "Sphaerotheca fuliginea", "result": "90 to 100", "unit": "%"},
      {"measurement": "pest or weed control at 500 ppm", "setting": "Puccinia recondita", "result": "70 to 79", "unit": "%"}
    ]},
    {"smiles": "N#Cc1cncn1CC(O)(Cc1ccc(-c2ccccc2)cc1)C1(Cl)CC1", "note": "(stereo not shown) [Example I-63]", "values": [
      {"measurement": "chromatographic logP", "setting": "[1]", "result": 3.68}
    ]},
    {"smiles": "N#Cc1cncn1CC(O)(Cc1ccccc1Cl)C1CCC1", "note": "(stereo not shown) [Example I-81]", "values": [
      {"measurement": "pest or weed control at 500 ppm", "setting": "Uromyces appendiculatus", "result": "90 to 100", "unit": "%"},
      {"measurement": "pest or weed control at 500 ppm", "setting": "Septoria tritici", "result": "90 to 100", "unit": "%"},
      {"measurement": "pest or weed control at 500 ppm", "setting": "Sphaerotheca fuliginea", "result": "90 to 100", "unit": "%"},
      {"measurement": "pest or weed control at 500 ppm", "setting": "Puccinia recondita", "result": "90 to 100", "unit": "%"}
    ]},
    {"smiles": "CC(C)(C)CC(O)(Cc1ccccc1Cl)Cn1cncc1C#N", "note": "(stereo not shown) [Example I-83]", "values": [
      {"measurement": "chromatographic logP", "setting": "[1]", "result": 3.55}
    ]},
    {"smiles": "CC(C)(C)CC(O)(Cc1ccc(Cl)cc1)Cn1cncc1C#N", "note": "(stereo not shown) [Example I-86]", "values": [
      {"measurement": "chromatographic logP", "setting": "[1]", "result": 3.37}
    ]},
    {"smiles": "N#Cc1cncn1CC(O)(Cc1ccc(F)c(F)c1F)C1(F)CC1", "note": "(stereo not shown) [Example I-93]", "values": [
      {"measurement": "chromatographic logP", "setting": "[1]", "result": 2.52}
    ]},
    {"smiles": "N#Cc1cncn1CC(O)(Cc1cccc(Cl)c1F)C1(F)CC1", "note": "(stereo not shown) [Example I-94]", "values": [
      {"measurement": "chromatographic logP", "setting": "[1]", "result": 2.68}
    ]},
    {"smiles": "N#Cc1cncn1CC(O)(Cc1ccc(F)cc1)C1(F)CC1", "note": "(stereo not shown) [Example I-100]", "values": [
      {"measurement": "chromatographic logP", "setting": "[1]", "result": 2.35}
    ]},
    {"smiles": "CC1(C(O)(Cc2ccc(F)c(F)c2F)Cn2cncc2C#N)CC1", "note": "(stereo not shown) [Example I-102]", "values": [
      {"measurement": "chromatographic logP", "setting": "[1]", "result": 2.82}
    ]},
    {"smiles": "N#Cc1cncn1CC(O)(Cc1ccc(Cl)cc1F)C1CC1", "note": "(stereo not shown) [Example I-115]", "values": [
      {"measurement": "pest or weed control at 500 ppm", "setting": "Uromyces appendiculatus", "result": "90 to 100", "unit": "%"},
      {"measurement": "pest or weed control at 500 ppm", "setting": "Septoria tritici", "result": "90 to 100", "unit": "%"},
      {"measurement": "pest or weed control at 500 ppm", "setting": "Sphaerotheca fuliginea", "result": "90 to 100", "unit": "%"},
      {"measurement": "pest or weed control at 500 ppm", "setting": "Puccinia recondita", "result": "90 to 100", "unit": "%"}
    ]},
    {"smiles": "N#Cc1cncn1CC(O)(Cc1ccc(F)cc1F)C1CCC1", "note": "(stereo not shown) [Example I-127]", "values": [
      {"measurement": "pest or weed control at 500 ppm", "setting": "Uromyces appendiculatus", "result": "90 to 100", "unit": "%"},
      {"measurement": "pest or weed control at 500 ppm", "setting": "Septoria tritici", "result": "90 to 100", "unit": "%"},
      {"measurement": "pest or weed control at 500 ppm", "setting": "Sphaerotheca fuliginea", "result": "90 to 100", "unit": "%"},
      {"measurement": "pest or weed control at 500 ppm", "setting": "Puccinia recondita", "result": "80 to 89", "unit": "%"}
    ]},
    {"smiles": "CCOC(=O)c1cncn1CC(O)(Cc1ccccc1F)C1(Cl)CC1", "note": "(stereo not shown) [Example I-135]", "values": [
      {"measurement": "chromatographic logP", "setting": "[1]", "result": 2.73}
    ]},
    {"smiles": "N#Cc1cncn1CC(O)(Cc1cccc(Cl)c1F)C1(Cl)CC1", "note": "(stereo not shown) [Example I-145]", "values": [
      {"measurement": "chromatographic logP", "setting": "[1]", "result": 3.02}
    ]},
    {"smiles": "N#Cc1cncn1CC(O)(Cc1ccc(F)cc1)C1(Cl)CCC1", "note": "(stereo not shown) [Example I-159]", "values": [
      {"measurement": "chromatographic logP", "setting": "[1]", "result": 2.98}
    ]},
    {"smiles": "N#Cc1cncn1CC(O)(Cc1ccc(F)cc1)C1CCC1", "note": "(stereo not shown) [Example I-160]", "values": [
      {"measurement": "chromatographic logP", "setting": "[1]", "result": 2.56}
    ]},
    {"smiles": "N#Cc1cncn1CC(O)(Cc1ccc(F)cc1)C1CCCC1", "note": "(stereo not shown) [Example I-161]", "values": [
      {"measurement": "chromatographic logP", "setting": "[1]", "result": 2.82}
    ]},
    {"smiles": "CC(C)C(O)(Cc1ccc(F)cc1)Cn1cncc1C#N", "note": "(stereo not shown) [Example I-162]", "values": [
      {"measurement": "chromatographic logP", "setting": "[1]", "result": 2.44}
    ]}
  ]
}
